According to ChEMBL document CHEMBL1149974, “New Oligosaccharidic Crown Ethers as Potential Drug-Targetting Vectors: Synthesis & Biological Evaluation” (1994):
Converted amounts (≈) assume the structure as drawn.

Test system: Saccharomyces cerevisiae
Experiment: Minimum inhibitory concentration required for in vitro inhibition of flocculation against cell wall galactose-specific yeast lectin (KbCWL)
Type: functional

Row | Compound | MIC [µM]
1 | O=C[C@H](O)[C@@H](O)[C@@H](O)[C@H](O)CO [GALACTOSE] | 3500 (≈ 631 µg/mL)
2 | CO[C@H]1O[C@@H](C)[C@@H](O[C@@H]2O[C@@H](CO)[C@H](O)C(O)[C@@H]2O)C2OCCOCCOc3ccccc3OCCOCCO[C@@H]21 (single isomer, unassigned) | 2650 (≈ 1570 µg/mL)
3 | LACTOSE, ANHYDROUS | 1250
4 | CO[C@H]1O[C@@H](C)[C@@H](O[C@@H]2O[C@@H](CO)[C@@H](O[C@@H]3O[C@@H](CO)[C@H](O)[C@H](O)[C@@H]3O)[C@H](O)[C@@H]2O)[C@@H]2OCCOCCOc3ccccc3OCCOCCO[C@H]12 | 3000 (≈ 2260 µg/mL)
5 | CO[C@@H]1O[C@H](CO)[C@H](O)[C@H](O)[C@H]1O | 1750 (≈ 340 µg/mL)
